# Source: patent US20250026721A1, “COMPOUNDS AND METHODS FOR MODULATING RAS-PI3K” (Vividion Therapeutics, Inc., priority 2023, published 2025)
# Target: T1, PIK3CA_C242 (Homo sapiens, UniProt P42336)
# T1 construct: endogenous in cells; host or cells: Jurkat cell lysate
# Experiment: Proteomic TE50 (IA-DTB / TMT mass spectrometry) in Jurkat cell lysate
# Assay type: binding
# Conditions: 1 hour at rt, 7-point dose response
# Experimental: Example 4. Proteomic TE50 In vitro TE50 values for PIK3CA_C242 were obtained by treating 500 μg of cell lysate generated from Jurkat cells with DMSO or compound for 1 hour at rt followed by the addition of 200 μM desthiobiotin polyethyleneoxide iodoacetamide (IA-DTB) in DMSO for one hour at rt. Compounds were serially diluted 1:5 for a total of 7 points in order to generate dose response curves. Samples were then precipitated by the addition of 8× ice cold acetone and incubated at -80° C. for two hours. Protein was then pelleted by centrifugation (4,200 RPM, 45 min, 4° C.). The pelleted material was resuspended in 9M urea, 50 mM ammonium bicarbonate and proteins were reduced and alkylated by the addition of DTT and iodoacetamide (10 and 30 mM, respectively). Following reduction and alkylation, samples were exchanged into 2M urea (Zeba spin desalting plates, Thermo Fisher) and digested with Trypsin. IA-DTB labeled peptides were isolated with streptavidin agarose resin. Enriched peptides were eluted by the addition of 50% acetonitrile (ACN) 0.1% formic acid (FA) and dried in a SpeedVac vacuum concentrator. […] Reactions were quenched by the addition of 6.5 μL of 5% hydroxylamine. Samples were then combined and desalted on a Evolute express ABN plate (Biotage, 600-0010-PX01). Targeted TMT measurements were collected using an Orbitrap Lumos Tribrid Mass Spectrometer (Thermo Scientific) coupled to an UltiMate 3000 Series Rapid Separation LC system and autosampler (Thermo Scientific Dionex). Peptides were eluted onto a custom C18 capillary analytical column (75-μm inner diameter fused silica, packed with Acclaim PepMap C18 resin; Thermo Scientific) using an Acclaim PepMap 100 (Thermo 164535) loading column, and separated at a flow rate of […]. Data were acquired using a specific MS3-based TMT method targeting the peptide containing […], +2 charge state) where MS2 peptide fragmentation is triggered upon detection of the peptide precursor ion. Subsequent MS3 analysis was then performed using pre-selected peptide fragment ions that were isolated for fragmentation using synchronous precursor selection. RAW files were converted to MZXML format and searched with the SEQUEST algorithm using the […] software package. TMT quantitation was performed with a filter requiring at least ten summed signal-to-noise (S/N) for control channels. TE50 values were calculated from 7-point dose response curves created using the reporter ion S/N for each channel.
# T1 sequence (P42336 whole entry): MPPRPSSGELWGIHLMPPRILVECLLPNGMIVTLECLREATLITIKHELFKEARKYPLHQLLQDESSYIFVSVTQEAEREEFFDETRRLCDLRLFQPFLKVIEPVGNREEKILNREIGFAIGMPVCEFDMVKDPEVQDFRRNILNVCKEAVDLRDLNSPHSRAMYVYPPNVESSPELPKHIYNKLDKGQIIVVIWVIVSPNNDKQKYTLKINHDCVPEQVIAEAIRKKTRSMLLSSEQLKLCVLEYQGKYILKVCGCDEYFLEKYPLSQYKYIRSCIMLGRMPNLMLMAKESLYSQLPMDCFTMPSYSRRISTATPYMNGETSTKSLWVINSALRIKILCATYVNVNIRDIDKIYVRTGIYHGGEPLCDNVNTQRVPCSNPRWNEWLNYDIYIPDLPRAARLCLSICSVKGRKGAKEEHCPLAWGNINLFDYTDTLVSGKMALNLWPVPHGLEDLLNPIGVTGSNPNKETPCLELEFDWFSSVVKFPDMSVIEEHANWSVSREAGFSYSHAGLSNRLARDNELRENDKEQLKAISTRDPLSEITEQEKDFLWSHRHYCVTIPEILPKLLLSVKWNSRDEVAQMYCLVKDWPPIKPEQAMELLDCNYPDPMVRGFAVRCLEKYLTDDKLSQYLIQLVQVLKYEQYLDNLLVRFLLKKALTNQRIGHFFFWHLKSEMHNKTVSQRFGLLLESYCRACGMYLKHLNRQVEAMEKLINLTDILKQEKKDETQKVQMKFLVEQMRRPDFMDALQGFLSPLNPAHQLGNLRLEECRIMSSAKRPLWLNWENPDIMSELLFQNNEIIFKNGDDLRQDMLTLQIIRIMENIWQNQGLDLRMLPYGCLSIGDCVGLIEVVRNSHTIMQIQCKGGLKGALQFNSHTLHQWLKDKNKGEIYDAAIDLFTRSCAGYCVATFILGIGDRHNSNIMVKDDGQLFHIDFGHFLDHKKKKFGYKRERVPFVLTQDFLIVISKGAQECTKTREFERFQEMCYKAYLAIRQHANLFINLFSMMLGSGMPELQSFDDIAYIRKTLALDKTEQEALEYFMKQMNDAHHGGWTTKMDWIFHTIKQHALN
# T1 sequence (P27986 whole entry partner): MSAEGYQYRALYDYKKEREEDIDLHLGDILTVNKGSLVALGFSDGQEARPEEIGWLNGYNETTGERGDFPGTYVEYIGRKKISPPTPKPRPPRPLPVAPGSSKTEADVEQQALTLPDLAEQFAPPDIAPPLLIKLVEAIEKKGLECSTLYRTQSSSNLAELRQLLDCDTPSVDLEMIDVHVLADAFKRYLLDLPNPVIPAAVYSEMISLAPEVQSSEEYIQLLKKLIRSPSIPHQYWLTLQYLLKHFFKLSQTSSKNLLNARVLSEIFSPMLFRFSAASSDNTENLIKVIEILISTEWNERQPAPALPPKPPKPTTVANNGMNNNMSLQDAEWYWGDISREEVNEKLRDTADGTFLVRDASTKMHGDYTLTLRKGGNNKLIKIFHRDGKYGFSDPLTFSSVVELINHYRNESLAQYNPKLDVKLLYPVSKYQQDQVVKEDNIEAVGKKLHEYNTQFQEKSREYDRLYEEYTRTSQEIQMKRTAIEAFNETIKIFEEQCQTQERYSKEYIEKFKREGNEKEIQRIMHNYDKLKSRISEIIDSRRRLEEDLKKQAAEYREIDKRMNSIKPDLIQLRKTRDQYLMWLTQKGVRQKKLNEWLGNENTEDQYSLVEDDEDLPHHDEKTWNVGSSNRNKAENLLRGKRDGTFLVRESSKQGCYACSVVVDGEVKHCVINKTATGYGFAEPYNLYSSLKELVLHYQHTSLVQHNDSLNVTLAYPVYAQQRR
row,Compound,IC50
1,"C[C@H](/C=C\S(C)(=O)=O)NC(=O)C1(F)CCN(C(=O)[C@@H]2CN(C(=O)OC(C)(C)C)C[C@@H]2c2ccccc2Cl)CC1 (racemic) [Compound 158, tert-butyl(3RS,4RS)-3-(2-chlorophenyl)-4-(4-fluoro-4-(((R,Z)-4-(methylsulfonyl)but-3-en-2-yl)carbamoyl)piperidine-1-carbonyl)pyrrolidine-1-carboxylate]",895 nM
2,"CS(=O)(=O)/C=C/CNC(=O)C1(F)CCN(S(=O)(=O)c2ccc(Cl)cc2-c2ccccc2)CC1 [Compound 37, (E)-1-((5-chloro-[1,1′-biphenyl]-2-yl)sulfonyl)-4-fluoro-N-(3-(methylsulfonyl)allyl)piperidine-4-carboxamide]",297 nM
3,"COc1ccc(S(=O)(=O)N2CCC(F)(C(=O)NC/C=C/S(C)(=O)=O)CC2)c(-c2ccccc2)c1 [Compound 38, (E)-4-fluoro-1-((5-methoxy-[1,1′-biphenyl]-2-yl)sulfonyl)-N-(3-(methylsulfonyl)allyl)piperidine-4-carboxamide]",644 nM
4,"CS(=O)(=O)/C=C/CNC(=O)C1(F)CCN(S(=O)(=O)c2ccc(Cl)cc2-c2ccccc2Cl)CC1 [Compound 40, (E)-1-((2′,5-dichloro-[1,1′-biphenyl]-2-yl)sulfonyl)-4-fluoro-N-(3-(methylsulfonyl)allyl)piperidine-4-carboxamide]",210 nM
5,"COc1ccc(S(=O)(=O)N2CCC(F)(C(=O)NC/C=C/S(C)(=O)=O)CC2)c(-c2ccccc2Cl)c1 [Compound 43, (E)-1-((2′-chloro-5-methoxy-[1,1′-biphenyl]-2-yl)sulfonyl)-4-fluoro-N-(3-(methylsulfonyl)allyl)piperidine-4-carboxamide]",264 nM
6,"COc1ccc(S(=O)(=O)N2CCC(F)(C(=O)NC/C=C/S(C)(=O)=O)CC2)c(-c2ccccc2C)c1 [Compound 44, (E)-4-fluoro-1-((5-methoxy-2′-methyl-[1,1′-biphenyl]-2-yl)sulfonyl)-N-(3-(methylsulfonyl)allyl)piperidine-4-carboxamide]",313 nM
7,"CS(=O)(=O)/C=C/CNC(=O)C1(F)CCN(S(=O)(=O)c2ccc(Cl)cc2-c2cccc(Cl)c2)CC1 [Compound 45, (E)-1-((3′,5-dichloro-[1,1′-biphenyl]-2-yl)sulfonyl)-4-fluoro-N-(3-(methylsulfonyl)allyl)piperidine-4-carboxamide]",420 nM
8,"CC#Cc1cccc(-c2cc(Cl)ccc2S(=O)(=O)N2CCC(F)(C(=O)NC/C=C/S(C)(=O)=O)CC2)c1 [Compound 46, (E)-1-((5-chloro-3′-(prop-1-yn-1-yl)-[1,1′-biphenyl]-2-yl)sulfonyl)-4-fluoro-N-(3-(methylsulfonyl)allyl)piperidine-4-carboxamide]",460 nM
9,"N#C/C=C/CNC(=O)C1(F)CCN(S(=O)(=O)c2ccc(Cl)cc2-c2ccccc2Cl)CC1 [Compound 69, (E)-N-(3-cyanoallyl)-1-((2′,5-dichloro-[1,1′-biphenyl]-2-yl)sulfonyl)-4-fluoropiperidine-4-carboxamide]",520 nM
10,"COc1ccc(S(=O)(=O)N2CCC(F)(C(=O)NC/C=C\C#N)CC2)c(-c2ccccc2Cl)c1 [Compound 71, (Z)-1-((2′-chloro-5-methoxy-[1,1′-biphenyl]-2-yl)sulfonyl)-N-(3-cyanoallyl)-4-fluoropiperidine-4-carboxamide]",160 nM
11,"CC[C@H](/C=C\S(C)(=O)=O)NC(=O)C1(F)CCN(S(=O)(=O)c2ccc(N(C)C)cc2-c2ccccc2Cl)CC1 [Compound 85, (R,Z)-1-((2′-chloro-5-(dimethylamino)-[1,1′-biphenyl]-2-yl)sulfonyl)-4-fluoro-N-(1-(methylsulfonyl)pent-1-en-3-yl)piperidine-4-carboxamide]",930 nM
12,"C[C@@H](/C=C\S(C)(=O)=O)NC(=O)C1(F)CCN(S(=O)(=O)c2ccc(N(C)C)cc2-c2ccccc2Cl)CC1 [Compound 89, (S,Z)-1-((2′-chloro-5-(dimethylamino)-[1,1′-biphenyl]-2-yl)sulfonyl)-4-fluoro-N-(4-(methylsulfonyl)but-3-en-2-yl)piperidine-4-carboxamide]",47 nM
13,"CN(C)c1ccc(S(=O)(=O)N2CCC(F)(C(=O)NC/C=C/S(C)(=O)=O)CC2)c(-c2ccccc2)c1 [Compound 94, (E)-1-((5-(dimethylamino)-[1,1′-biphenyl]-2-yl)sulfonyl)-4-fluoro-N-(3-(methylsulfonyl)allyl)piperidine-4-carboxamide]",190 nM
14,"CN(C)c1ccc(S(=O)(=O)N2CCC(F)(C(=O)NC/C=C/S(C)(=O)=O)CC2)c(-c2ccccc2Cl)c1 [Compound 95, (E)-1-((2′-chloro-5-(dimethylamino)-[1,1′-biphenyl]-2-yl)sulfonyl)-4-fluoro-N-(3-(methylsulfonyl)allyl)piperidine-4-carboxamide]",100 nM

# Other lines, results leading:
row,IC50,Compound
1,88.5 nM,"C[C@@H](/C=C\S(C)(=O)=O)NC(=O)C1(F)CCN(S(=O)(=O)c2ccc(Cl)cc2-c2ccccc2)CC1 [Compound 2, (S,Z)-1-((5-chloro-[1,1′-biphenyl]-2-yl)sulfonyl)-4-fluoro-N-(4-(methylsulfonyl)but-3-en-2-yl)piperidine-4-carboxamide]"
2,70.1 nM,"COc1ccc(S(=O)(=O)N2CCC(F)(C(=O)N[C@@H](C)/C=C\S(C)(=O)=O)CC2)c(-c2ccccc2Cl)c1 [Compound 11, (S,Z)-1-((2′-chloro-5-methoxy-[1,1′-biphenyl]-2-yl)sulfonyl)-4-fluoro-N-(4-(methylsulfonyl)but-3-en-2-yl)piperidine-4-carboxamide]"
3,66 nM,"COc1ccc(S(=O)(=O)N2CCC(F)(C(=O)N[C@@H](C)/C=C\S(C)(=O)=O)CC2)c(-c2ccccc2C)c1 [Compound 12, (S,Z)-4-fluoro-1-((5-methoxy-2′-methyl-[1,1′-biphenyl]-2-yl)sulfonyl)-N-(4-(methylsulfonyl)but-3-en-2-yl)piperidine-4-carboxamide]"
4,630 nM,"COc1ccc(S(=O)(=O)N2CCC(F)(C(=O)N[C@H](C)/C=C\S(C)(=O)=O)CC2)c(-c2cc(F)ccc2Cl)c1 [Compound 28, (R,Z)-1-((2′-chloro-5′-fluoro-5-methoxy-[1,1′-biphenyl]-2-yl)sulfonyl)-4-fluoro-N-(4-(methylsulfonyl)but-3-en-2-yl)piperidine-4-carboxamide]"
5,750 nM,"COc1cccc(-c2cc(Cl)ccc2S(=O)(=O)N2CCC(F)(C(=O)NC/C=C/S(C)(=O)=O)CC2)c1 [Compound 36, (E)-1-((5-chloro-3′-methoxy-[1,1′-biphenyl]-2-yl)sulfonyl)-4-fluoro-N-(3-(methylsulfonyl)allyl)piperidine-4-carboxamide]"
6,716 nM,"COc1cccc(-c2cc(OC)ccc2S(=O)(=O)N2CCC(F)(C(=O)NC/C=C/S(C)(=O)=O)CC2)c1 [Compound 39, (E)-1-((3′,5-dimethoxy-[1,1′-biphenyl]-2-yl)sulfonyl)-4-fluoro-N-(3-(methylsulfonyl)allyl)piperidine-4-carboxamide]"
7,290 nM,"COc1ccc(S(=O)(=O)N2CCC(F)(C(=O)NC/C=C/S(C)(=O)=O)CC2)c(-c2cccc(Cl)c2)c1 [Compound 41, (E)-1-((3′-chloro-5-methoxy-[1,1′-biphenyl]-2-yl)sulfonyl)-4-fluoro-N-(3-(methylsulfonyl)allyl)piperidine-4-carboxamide]"
8,624 nM,"COc1cccc(-c2cc(C)ccc2S(=O)(=O)N2CCC(F)(C(=O)NC/C=C/S(C)(=O)=O)CC2)c1 [Compound 42, (E)-4-fluoro-1-((3′-methoxy-5-methyl-[1,1′-biphenyl]-2-yl)sulfonyl)-N-(3-(methylsulfonyl)allyl)piperidine-4-carboxamide]"
9,66.7 nM,"COc1cccc(-c2cc(Br)ccc2S(=O)(=O)N2CCC(F)(C(=O)N[C@@H](C)/C=C\S(C)(=O)=O)CC2)c1 [Compound 61, (S,Z)-1-((5-bromo-3′-methoxy-[1,1′-biphenyl]-2-yl)sulfonyl)-4-fluoro-N-(4-(methylsulfonyl)but-3-en-2-yl)piperidine-4-carboxamide]"
10,360 nM,"COc1cccc(-c2cc(Br)ccc2S(=O)(=O)N2CCC(F)(C(=O)NC/C=C/S(C)(=O)=O)CC2)c1 [Compound 63, (E)-1-((5-bromo-3′-methoxy-[1,1′-biphenyl]-2-yl)sulfonyl)-4-fluoro-N-(3-(methylsulfonyl)allyl)piperidine-4-carboxamide]"
11,510 nM,"COc1cccc(-c2cc(Cl)ccc2S(=O)(=O)N2CCC(F)(C(=O)N[C@H](C)/C=C/S(C)(=O)=O)CC2)c1 [Compound 80, (R,E)-1-((5-chloro-3′-methoxy-[1,1′-biphenyl]-2-yl)sulfonyl)-4-fluoro-N-(4-(methylsulfonyl)but-3-en-2-yl)piperidine-4-carboxamide]"
